Source: ChEMBL document CHEMBL1777666 (Bioorg Med Chem Lett, 2009)

Legend:
[1] = Inhibition of human recombinant aldose reductase 2 expressed in Escherichia coli BL21 after 10 mins by spectrophotometry analysis
[2] = biological target: Aldehyde reductase AKR1A1 (Homo sapiens); test: Inhibition of human recombinant aldehyde reductase after 10 mins by spectrophotometry analysis

| IC50 [1] [nM] | IC50 [2] [nM] | Structure (SMILES) |
| --- | --- | --- |
| 5 |  | O=C(O)Cn1cc(Cc2nc3c(F)c(F)cc(F)c3s2)c2ccccc21 [LIDORESTAT] |
| 7 |  | O=C(O)Cn1cc(Cc2nc3c(F)c(F)cc(F)c3s2)c2cccnc21 |
| 8 | > 100000 | Cc1ccc2c(Cc3nc4c(F)c(F)cc(F)c4s3)cn(CC(=O)O)c2n1 |
| 12 |  | CCc1ccc2c(Cc3nc4c(F)c(F)cc(F)c4s3)cn(CC(=O)O)c2n1 |
